Test results published in patent publication US9241951B2, “Of gastrointestinal health, immunity and performance by dietary intervention” (BIOATLANTIS LTD, priority 2009, dated 2016).

How the values were obtained:
Experiment in all cases: Mucin gene expression in ileum and colon (qPCR), Example 5
Assay type in all cases: in vivo, pig
MUC2 = system: MUC2
Protocol: (§1) 21 pigs with an initial weight of 17.9±2.2 Kg were assigned to one of the 3 dietary treatments: (T1) control; (T2) basal diet+300 ppm LAM; (T3) basal diet+600 ppm LAM. Experimental feeding continued for 21 days ad libitum. Diets were formulated to have similar digestible energy (DE) (14.4 MJ/Kg) and ileal digestible lysine (12.5 g/Kg).
(§2) Ileal and colonic tissues was stabilised in RNAlater® solution and stored overnight at 4° C. The following day, RNAlater® was removed and samples were stored at −86° C. prior to RNA extraction.
(§3) Tissue samples for RNA extraction were removed from −86° C. and homogenised. 500 μl of lysis solution/2-ME was added to each sample and these were mechanically disrupted using one 5 mm stainless steel bead per sample. These were then placed in a Tissue Lyser (Qiagen) and lysates were homogenised for 3 mins and transferred to a GenElute Filtration Column (Sigma Aldrich) and RNA was extracted. 1 µg of total RNA was used for cDNA synthesis using oligo(dT)20 primer in a final reaction volume of 20 μl with Superscript™ III First-Strand synthesis system for reverse transcriptase-polymerase chain reaction (RT-PCR) (Invitrogen Life Technologies, Carlsbad, Calif.). At the last step of cDNA synthesis, treatment with E. coli RNase H (Invitrogen Corp.) was performed to digest the remaining RNA/mRNA template, resulting in the production of the single-stranded cDNA template for subsequent qRT-PCR reactions.
(§4) All porcine primers for the cytokine genes interferon gamma (IFN-γ), interleukin-1α (IL-1α), IL-6, IL-8, IL-10, IL-17, tumour necrosis factor (TNF-α), the mucin genes (MUCs 1, 2, 4, 5AC, 12, 13 and 20) and three reference genes, β-actin (ACTB), Glyceraldehyde-3-phosphate dehydrogenase (GAPDH) and Peptidylprolyl isomerase A (PPIA), were designed using Primer Express™ (PE Applied Biosystems, Foster City, Calif.) and synthesised by MWG Biotech (Milton Keynes, UK). These reference genes were previously validated for use in porcine tissue and qPCR was then carried out on the cDNA using the ABI PRISM 7900HT Fast sequence detection system for 96-well plates (Applied Biosystems, Foster City, Calif.). All samples were prepared in duplicate using SYBR Green Fast PCR Master Mix (Applied Biosystems, Foster City, Calif.), cDNA as template and specific primers for the genes selected. For each reaction 5 μl cDNA, 1.2 μl (forward and reverse primer mix, 5 μM), 10 μl Fast SYBR Green PCR Master Mix (PE Applied Biosystems, Foster City, Calif.) was added and made up to a final volume of 20 μl. The two step PCR program was as follows: 95° C. for 10 minutes for 1 cycle followed by 95° C. for 15 seconds and 60° C. for 1 minute for 40 cycles. The raw Ct values for the reference genes were converted to relative quantities using the formula Q=E ^ΔCt where E is the PCR efficiency of the assay and ^ΔCt is the value calculated for the difference between the lowest Ct value for each gene minus the Ct value of the sample in question. The relative quantities of the endogenous controls were then analysed for stability in geNorm (Vandesompele et al., 2002). The stability ‘M’ value generated by the geNorm application for the selected endogenous controls (ACTB, GAPDH and PPIA) indicated their suitability as endogenous controls for these intestinal samples. The geometric mean of the relative quantities for ACTB, GAPDH and PPIA (normalisation factor) was then calculated using geNorm. The relative quantities of each target gene were divided by the normalisation factor (obtained in geNorm) for that sample to give the final normalised relative expression.

MUC13 = details: LAM supplementation
Protocol: as §1, §2, §3, §4

MUC5AC = details: colon; LAM supplementation
Protocol: as §1, §2, §3, §4

MUC20 = details: LAM supplementation
Protocol: as §1, §2, §3, §4

MUC4 = system: MUC4
Protocol: as §1, §2, §3, §4

MUC1 = details: colon; LAM supplementation
Protocol: as §1, §2, §3, §4

MUC12 = details: LAM supplementation
Protocol: as §1, §2, §3, §4

## laminarin
MUC2; colon, LAM 600 ppm
  MUC2 expression: significantly increased
MUC2; ileum, LAM 300 ppm relative to control animals
  MUC2 expression: increase
MUC2; ileum, LAM 600 ppm
  increased MUC2 expression: not observed
MUC13; colon
  MUC13 expression: no effect
MUC13; ileum
  MUC13 expression: no effect
MUC5AC
  MUC5AC expression: no effect
MUC20; colon
  MUC20 expression: no effect
MUC20; ileum
  MUC20 expression: no effect
MUC4; colon, LAM 600 ppm
  MUC4 expression: significantly increased
MUC4; ileum, LAM supplementation
  MUC4 expression: no effect
MUC1
  MUC1 expression: no effect
MUC12; colon
  MUC12 expression: no effect
MUC12; ileum
  MUC12 expression: no effect
